Patent publication US12053606B2, “Opioid overdose rescue device” (Celero Systems, Inc., priority 2019, dated 2024)

Tests used:
[1] = tested on: opiate receptors—μ, κ and δ; conditions: cited from earlier work
[2] = cited from earlier work
respiratory rate = test: Induced morphine overdose and rescue with nalmefene in anesthetized porcine animal model; type: in vivo
From the text: The following examples provides data collected from an opioid overdose rescue device during overdose and rescue animal studies. The opioid overdose rescue device included a substrate having a PPG sensor, accelerometer and microcontroller disposed thereon, which was coupled to a substrate having a radio, chip antenna, power management components, and magnet sensor (so the device could be turned on and off without direct contact) disposed thereon.
FIGS. 6A and 6B show an example PPG sensor recording from the intestines in an anesthetized porcine animal model during an overdose and recovery study. The PPG sensor was endoscopically placed into the small intestine and anchored to intestinal tissue with 2 endoclips—one on each side of the device.
Baseline data was collected for 8 minutes. Then 60 mg of IV morphine was administered over 3 minutes (20 mg each minute for 3 minutes). The respiratory rate as measured by the lab vitals monitoring equipment decreased eventually to zero, indicated respiratory failure. One minute after respiratory failure, 50 mg nalmefene in solution was administered endoscopically directly into the intestines. Within 4 minutes of nalmefene delivery breathing recovered and eventually returned to pre-overdose levels. […] In certain aspects, a method of mitigating the effects of an opioid overdose could involve determining when a measured respiratory rate drops below a threshold (e.g. 8 breaths per minute) for a duration of time (e.g. 30 seconds) and commanding release of a rescue medication.
In a different study than referenced in FIG. 7, the device was endoscopically placed and anchored in the animal's intestine in a similar manner. […] As with the PPG data, a measured respiratory rate obtained from the motion sensing (i.e. accelerometer) data in the intestine could be used to detect an opioid overdose and trigger delivery of a rescue medication.

| Structure (SMILES) | antagonist activity at opiate receptor types [1] | oral bioavailability [2] [%] | time after nalmefene delivery until breathing recovered (respiratory rate; PPG sensor study (FIG. 7), 50 mg nalmefene in solution endoscopically into the intestines, one minute after respiratory failure from 60 mg IV morphine) [min] | time after nalmefene delivery until respiratory rate restored to normal levels (respiratory rate; accelerometer study (FIG. 8), 50 mg nalmefene in solution endoscopically delivered after respiratory failure from 60 mg IV morphine) [min] | respiratory rate after morphine (lab vitals monitor) (respiratory rate; 60 mg IV morphine over 3 minutes, zero indicates respiratory failure) |
| --- | --- | --- | --- | --- | --- |
| C=C1CC[C@@]2(O)[C@H]3Cc4ccc(O)c5c4[C@@]2(CCN3CC2CC2)[C@H]1O5 [nalmefene] | antagonist activity against all three types of opiate receptors | 41 | ≤ 4 | 14 | – |
| CN1CC[C@]23c4c5ccc(O)c4O[C@H]2[C@@H](O)C=C[C@H]3[C@H]1C5 [morphine] | – | – | – | – | zero |
